Where a name gives a salt, the structure may show the parent alone.
Assays:
Female BALB/c mice = experiment: Anti-obesity activity: weight of parametrial fat pads after 3 days of compound in the diet; type: in vivo; conditions: compound in diet for 3 days, dose differs per compound (Dose mg/kg diet), mean of 9 values
Description: Female BALB/c mice were trained to feed on powdered oxoid for 1 week. They were then housed in threes and the compound under study was added to the diet for 3 days. Food was removed at 09.00h and the mice were killed at 11.00h. The parametrial fat pads were weighed as pairs. The result is a mean of 9 values.

Male Sprague-Dawley rats = experiment: Effect on energy expenditure of rats (oxygen consumption, oral dosing); type: in vivo; conditions: deprived of food, p.o. in water, percentage of the rate of energy expenditure of the rats dosed with water, dose differs per compound (Dose mg/kg p.o.); for Mean Energy Expenditure (0-3h): 0-3h after dosing; for Mean Energy Expenditure (0-21h): 0-21h after dosing
Description: Male Sprague-Dawley rats each weighing between 170-200 g were deprived of food for 16 hours before, and during the experiment. Water was provided ad lib at all times. The compounds were administered orally in water to 3 or 4 rats. A further 4 rats were dosed orally with water. The rats were placed in boxes through which air was drawn and the oxygen content of the air leaving the boxes was measured. The energy expenditure of the rats was calculated for 3 hours and for 21 hours after dosing from the volume of air leaving the boxes and its oxygen content, following the principles described by J.B. de V. Weir, J. Physiol. (London) 109, 1-9 (1949). The results are expressed as a percentage of the rate of energy expenditure of the rats dosed with water.

Female CFLP mice = experiment: Hypoglycaemic activity: subcutaneous glucose load, area under blood glucose curve; type: in vivo; conditions: female CFLP mice fasted 24 hours; compound orally 30 minutes before glucose 1 g/kg s.c.; 2 hour period; versus control mice given water; dose differs per compound (Dose µmol/kg)
Description: Female CFLP mice, weighing approximately 25 g, were fasted for 24 hours prior to the study. The compounds under study were administered orally as an aqueous solution to each of 6 mice. 30 minutes later a blood sample (20 µl) was obtained from the tail for the analysis of blood glucose. Immediately after taking this blood sample, glucose (1 g/kg body weight) was administered subcutaneously to each mouse. 6 mice were given water as a control. Blood samples were then obtained from each mouse at 30 minute intervals for 120 minutes.
Compounds that produced a significant (p<0.05) reduction of blood glucose, compared with control mice given water, at any time interval, were considered active. The area under the blood glucose curve over the 2 hour period after the administration of the glucose was calculated for each compound and compared with the value for control animals.

Female CD1 mice = experiment: Effect on energy expenditure of mice (oxygen consumption, oral dosing); type: in vivo; conditions: p.o. in water, percentage of the rate of energy expenditure of the mice dosed with water, dose differs per compound (Dose mg/kg p.o.); for Mean Energy Expenditure (0-3h): 0-3h after dosing; for Mean Energy Expenditure (0-21h): 0-21h after dosing
Description: Female CD1 mice each weighing approximately 24 g were given food and water ad lib before and during the experiment. The compounds were dissolved in water and these solutions were administered orally to each of 12 mice. A further 12 mice were dosed orally with water. The mice were placed in groups of threes in boxes through which air was drawn and the oxygen content of the air leaving the boxes was measured. The energy expenditure of the mice was calculated for 3 and 21 hours after dosing from the volume of air leaving the boxes and its oxygen content, following the principles described by J.B. de V. Weir, J. Physiol. (London) 109, 1-9 (1949). The results are expressed as a percentage of the rate of energy expenditure of the mice dosed with water.

Isolated Rat Atria = experiment: Effect of compounds on isolated rat atria (rate of right atrium, tension of left atrium); type: cell-based, Sprague-Dawley male rats; conditions: Krebs solution 32°C, up to 3x10-^5M; for effect on tension (electrically paced left atrium): isolated rat left atrium; for effect on rate (spontaneously beating right atrium): isolated rat right atrium
Description: Sprague-Dawley male rats (300-400 g) are killed and the right and left atria dissected out independently and mounted on a combined tissue holder/electrode. The tissues are then immersed in a glass bath containing Krebs solution maintained at 32 °C. The rate of the spontaneously beating right atrium (via an isometric tranducer and a ratemeter) and the tension of the electrically paced left atrium (via an isometric transducer) are recorded on an M19 chart recorder.
After an initial stabilization period, the tissues are exposed to a maximal concentration of isoprenaline (10^-6M). The tissues are then washed several times until rate and tension return to baseline level. A dose-response curve to the test compound is then carried out.

Row | SMILES | Percentage reduction in weight of parametrial fat pads compared with controls (Female BALB/c mice) | Mean Energy Expenditure (0-3h) (Male Sprague-Dawley rats) | Mean Energy Expenditure (0-21h) (Male Sprague-Dawley rats) | % Reduction in Area under Blood Glucose Curve (Female CFLP mice) | Mean Energy Expenditure (0-3h) (Female CD1 mice) | Mean Energy Expenditure (0-21h) (Female CD1 mice) | effect on tension (electrically paced left atrium) (Isolated Rat Atria) | effect on rate (spontaneously beating right atrium) (Isolated Rat Atria)
1 | CCOC(=O)COc1ccc(C[C@@H](C)N(C[C@H](O)COc2ccccc2)C[C@H](O)COc2ccccc2)cc1 [Example 17, Ethyl 4-[(R)-2-[bis-[(S)-2-hydroxy-3-phenoxypropyl]amino]propyl]phenoxyacetate, hydrochloride, hemihydrate] | 37 Percentage | 120 percentage | 105 percentage |  |  |  |  | 
2 | CCOC(=O)COc1ccc(C[C@@H](C)N(C[C@H](O)COc2ccccc2)C[C@H](O)c2cccc(Cl)c2)cc1 [Example 18, Ethyl 4-[(R)-2-[N-[(R)-2-(3-chlorophenyl)-2-hydroxyethyl]-N-[(S)-2-hydroxy-3-phenoxypropyl]amino]propyl]phenoxyacetate, hemifumarate] | 21 Percentage | 126 percentage | 109 percentage | 45% |  |  |  | 
3 | C[C@H](Cc1ccc(OCC(N)=O)cc1)N(C[C@H](O)COc1ccccc1)C[C@H](O)c1ccccc1 [Example 16, 4-[(R)-2-[N-[(R)-2-Hydroxy-2-phenethyl]-N-[(S)-2-hydroxy-3-phenoxypropyl]amino]propyl]phenoxyacetamide, hydrochloride, hemihydrate] | 27 Percentage | 141 percentage | 119 percentage |  | 151 percentage | 113 percentage |  | 
4 | C[C@H](Cc1ccc(OCCN)cc1)N(C[C@H](O)COc1ccccc1)C[C@H](O)c1ccccc1 [Example 20, 4-[(R)-2-[N-[(R)-2-Hydroxy-2-phenethyl]-N-[(S)-2-hydrpxy-3-phenoxypropyl]amino]propyl]phenoxyethylamine, dihydrochloride, hydrate] | 15 Percentage | 112 percentage | 110 percentage | 40% | 146 percentage | 120 percentage |  | 
5 | COC(=O)c1ccc(C[C@@H](C)N(C[C@H](O)COc2ccccc2)C[C@H](O)COc2ccccc2)cc1 [Example 1, Methyl 4-[(R)-2-[bis-[(S)-2-hydroxy-3-phenoxypropyl]amino]propyl]benzoate] |  | 115 percentage | 114 percentage | 28% | 132 percentage | 107 percentage | no effect | no effect
6 | CC(Cc1ccc(OCC(N)=O)cc1)N(CC(O)COc1ccccc1)CC(O)c1cccc(Cl)c1.Cl (stereo not shown) [Example 8, 4-[2-[N-[2-(3-Chlorophenyl)-2-hydroxyethyl]-N-[2-hydroxy-3-phenoxypropyl]amino]propyl]phenoxyacetamide, hydrochloride] | 39 Percentage |  |  | 50% | 158 percentage | 122 percentage | no effect | no effect
7 | CCOC(=O)COc1ccc(C[C@@H](C)N(C[C@@H](O)COc2ccccc2)C[C@H](O)c2ccccc2)cc1 [Example 23, Ethyl 4-[(R)-2-[N-[(R-2-hydroxy-2-phenethyl]-N-[(R)-2-hydroxy-3-phenoxypropyl]amino]propyl]phenoxyacetate, hydrochloride] | 31 Percentage | 129 percentage | 111 percentage |  |  |  |  | 
8 | COC(=O)COc1ccc(CC(C)N(CC(O)COc2ccc(CC(N)=O)cc2)CC(O)c2cccc(Cl)c2)cc1 (stereo not shown) [Example 11, Methyl 4-[2-[N-[2-(3-chlorophenyl)-2-hydroxyethyl]-N-[2-hydroxy-3-(4-carboxamidomethyl)phenoxypropyl]amino]propyl] phenoxyacetate, hydrochloride] | 16 Percentage | 136 percentage | 111 percentage | 57% | 120 percentage | 112 percentage |  | 
9 | CCOC(=O)COc1ccc(C[C@@H](C)N(C[C@H](O)COc2ccccc2)C[C@H](O)c2ccccc2)cc1 [Example 15, Ethyl 4-[(R)-2-[N-[(R)-2-hydroxy-2-phenethyl]-N-[(S)-2-hydroxy-3-phenoxypropyl]amino]propyl]phenoxyacetate, hydrochloride] | 32 Percentage | 135 percentage | 118 percentage | 42% | 144 percentage | 120 percentage | no effect | no effect
10 | C[C@H](Cc1ccc(OCC(N)=O)cc1)N(C[C@H](O)COc1ccccc1)C[C@H](O)COc1ccccc1 [Example 14, 4-[(R)-2-[Bis-[(S)-2-hydroxy-3-phenoxypropyl]amino]propyl] phenoxyacetamide, hydrochloride] |  | 127 percentage | 117 percentage | 20% | 140 percentage | 112 percentage | no effect | no effect
11 | COC(=O)c1ccc(CC(C)N(CC(O)COc2ccccc2)CC(O)c2ccc(O)c(CO)c2)cc1 (stereo not shown) [Example 9, Methyl 4-[2-[N-[2-hydroxy-2-[4-hydroxy-3-hydroxymethylphenyl]ethyl]-N-[2-hydroxy-3-phenoxypropyl]amino]propyl] benzoate] | 13 Percentage |  |  | 34% | 111 percentage | 106 percentage |  | 
12 | COC(=O)c1ccc(C[C@@H](C)N(C[C@H](O)COc2ccccc2)C[C@H](O)c2ccccc2)cc1 [Example 4, Methyl 4-[(R)-2-[N-[(R)-2-hydroxy-2-phenethyl]-N-[(S)-2-hydroxy-3-phenoxypropyl]amino]propyl]benzoate, hydrochloride, monohydrate] | 25 Percentage | 110 percentage | 119 percentage | 12% | 145 percentage | 120 percentage | no effect | no effect

Reference: patent EP0170121A1, “2-Hydroxy-3-aryloxypropyl or 2-hydroxy-2-benzofuranyl ethyl tertiary amine having an anti-hyperglycaemic and/or anti-obesity activity” (BEECHAM GROUP PLC, priority 1984, dated 1986)
